Measured values taken from patent US7601494B2, “Method of screening candidate compounds for susceptibility to biliary excretion” (The University of North Carolina at Chapel Hill, priority 1999, dated 2009).
“Also recorded” adds a separate entry of the source. Where two headings read alike, the source gives them in different places.

Legend:
[1] = system: short-term cultured hepatocytes; test: Cumulative uptake in 3-hr (short-term) cultured hepatocyte monolayers, standard vs Ca2+-free buffer; type: in vitro ADME, rat; conditions: for cumulative uptake in standard buffer compared to Ca2+-free buffer: 3-hr cultured hepatocytes
Procedure: Hepatocytes were isolated with a two-step perfusion method. Briefly, rats were anesthetized with ketamine and xylazine (60 and 12mg/kg i.p., respectively) prior to portal vein cannulation. The liver was perfused in situ with oxygenated Ca^2+-free Krebs-Henseleit bicarbonate buffer containing collagenase type 1 (0.5 mg/ml) for 10 min. The hepatic capsule was removed with forceps. The hepatocytes were released by shaking the liver gently in 100 ml DMEM.
The released cells were filtered through a sterile nylon mesh (70-μm). The hepatocyte suspensions were centrifuged at 50 xg for 3 min. The cell pellet was resuspended in 25 ml DMEM and an equal volume of 90% isotonic polyvinylpyrrolidone-coated silica colloid centrifugation medium (pH 7.4) sold under the registered trademark PERCOLL® by Pharmacia, Inc. of Piscataway, N.J. The resulting cell suspension was centrifuged at about 70 to about 150 xg for 5 min. The pellet was resuspended in 50 ml DMEM and the cell suspensions were combined into one tube followed by centrifugation at 50 xg for 3 min. Hepatocyte viability was determined by trypan blue exclusion. Only those hepatocyte preparations with viability greater than 90% were utilized for further studies.
Hepatocyte suspensions were prepared with DMEM containing 5% fetal calf serum, 1 μM dexamethasone and 4 mg/L insulin. Hepatocyte suspensions were added to the precoated dishes at a density of about 2-3×10^6 cells/60-mm dish. Approximately 1 hr after plating the cells, the medium was aspirated and 3-ml fresh DMEM was added. For transport studies, hepatocytes that had been seeded for 3-5 hr without collagen overlay were defined as 3-hr or short-term cultured hepatocytes.
(§1) Hepatocytes cultured in a collagen-sandwich configuration were incubated in 3 ml standard buffer or Ca^2+-free buffer at 37° C. for 10 min. After removing the incubation buffer, uptake was initiated by addition of 3 ml standard buffer containing substrate to each dish. After incubation for designated times, cumulative uptake was terminated by aspirating the incubation solution and rinsing 4 times with 3 ml ice-cold standard buffer to remove extracellular substrate. After washing, 2 ml of 1% Triton X-100 solution was added to culture dishes, and the cells were lysed by shaking the dish on a shaker for 20 min at room temperature. An aliquot (1 ml) of lysate was analyzed by liquid scintillation spectrometry. Bio-Rad DC Protein Assay Kit (Bio-Rad Laboratories, Hercules, Calif.) was used to determine the protein concentration in the culture extracts using bovine serum albumin as standard. […] All values for substrate uptake into cell monolayers were corrected for nonspecific binding to the collagen by subtracting the substrate uptake determined in the appropriate control dishes in the absence of cells as described previously.
(§2) Uptake data were normalized to the protein content and expressed as mean±SD from 3-4 separate preparations of hepatocytes. Statistical differences between mean values for the 10-min cumulative substrate uptake in the presence and absence of Ca^2+ were determined by the use of the well-known Student's t-test. A P value of <0.05 was considered significant.

[2] = system: sandwich-cultured hepatocytes; test: Cumulative uptake, Biliary Excretion Index and in vitro biliary clearance in 96-hr sandwich-cultured hepatocytes; type: in vitro ADME, rat; conditions: for cumulative uptake in standard buffer compared to Ca2+-free buffer: 96-hr cultured hepatocytes; for Biliary Excretion Index: Equation 3
Procedure: To prepare sandwich-cultured hepatocytes, neutralized collagen solution (0.1 ml, about 1.5 to about 3.0 mg/ml, pH 7.4) was added to the monolayers 24 hr after the cells were seeded. […] Medium was changed on a daily basis until the fourth day after the cells were seeded. These hepatocytes were referred to as 96-hr or long-term cultured hepatocytes.
as §1, §2
Biliary excretion of substrates in the monolayers was quantitatively assessed by the Biliary Excretion Index based on Equation 3:
[formula] where Uptakestandard and Uptake Ca^2+-free represent the cumulative uptake of substrate over a 10-min interval in the hepatocyte monolayers pre-incubated in standard buffer and in Ca^2+-free buffer, respectively.
Biliary clearance in the sandwich-cultured hepatocytes, ClB(culture) (ml/min/kg per body weight), was calculated according to Equation 4:
[formula] where Timeincubation was 10 min and Concentrationmedium represented the initial substrate concentration in the incubation medium. In some embodiments, a biliary clearance value can be calculated as the ratio of the mass in the bile canaliculi and the area under the curve (AUC) in culture medium, wherein the AUC represents the integral of candidate compound (e.g. xenobiotic concentration) in the medium from time 0 to time T (time can be measure in any desired units, and is usually measured in minutes). Indeed, the term AUC can refer to the following equation: […]

[3] = In vivo biliary excretion and biliary clearance in rats (literature data, Equations 1 and 2); conditions: rat
Procedure: In vivo biliary clearance, ClB (ml/min/kg body weight), was calculated according to Equation 1:
[formula] where Amountbile(O-T) represents the amount of parent drug recovered in bile from 0 to time T when most drug was eliminated from the systemic circulation, and AUCO-T represents the area under the plasma concentration-time curve from 0 to time T (in minutes).
The in vivo intrinsic biliary clearance (ClBin, ml/min/kg body weight) was estimated according to Equation 2 based on the well-stirred model of hepatic disposition assuming biliary excretion is the predominant elimination pathway (Pang et al., J. Pharmacokinet. Biopharm. 5:625-653, 1977).
[formula] where Q represents rat hepatic plasma/blood flow, 40-70 ml/min/kg of body weight {(blood flow×(1-hematocrit)}; Pollack et al., J. Pharmacol. Exp. Ther. 18:197-202, (1989), and ClB represents biliary clearance for model compounds reported in the literature or calculated from Equation 1.
The five model substrates representing a diverse spectrum of biliary excretion properties were selected to examine the relationship between the percentage of the dose excreted in bile in vivo in rats and the Biliary Excretion Index in sandwich-cultured hepatocytes. Information regarding the percentage of the dose excreted in rat bile after i.v. administration was obtained from the literature.

[4] = cited from earlier work; for percentage of the dose excreted in rat bile: i.v. administration, in 1 hr, unchanged drug; for in vivo biliary clearance: rat, literature values
[5] = system: Mrp2; test: Immunoblot analysis of Mrp2 expression in siRNA-treated SCRH; type: cell-based, rat; conditions: 2 μg siRNA per well, 48 hr; for reduction in endogenous Mrp2 expression: vs siFL or non-transfected SCRH, average
Procedure: (§3) HepG2 cells were maintained in Dulbecco's modified Eagle's medium/F-12 plus 10% FBS. Rat hepatocytes were isolated from male Wistar rats (220-300g) by in situ collagenase perfusion (Annaert et al., Drug Metab Dispos 29:1277-1283, 2001). Cells were seeded at a density of 1.5×10^6 cells per well onto polystyrene 6-well plates pre-coated with rat tail type I collagen; a top layer of gelled collagen was overlaid 24 hr after plating. Rat hepatocyte cultures were maintained in Dulbecco's modified Eagle's medium supplemented with 0.1 μM dexamethasone and 0.1% ITS culture supplement (6.25 mg/mL insulin, 6.25 mg/mL transferrin, 6.25 μg/mL selenous acid, 5.35 mg/mL linoleic acid, and […]). Medium was changed every 24 hr.
(§4) HepG2 cells were seeded at a density of 2×10^5 cells per well onto 12-well plates 24 hr before transfection. A mixture of 100 ng firefly luciferase expression plasmid (PGL3-FL) and 100 ng Renilla luciferase expression plasmid (PRL-TK) and various amounts of firefly luciferase siRNA were used per well. Transfections of SCRH were performed at 20 hr after plating, unless specifically indicated. siRNA (2 μg unless specified) was used per well in 6-well plates. siRNA and DNA were formulated for transfection using […]™ transfection reaction kit (QIAGEN Inc. Valencia, Calif. USA). Briefly, siRNA was condensed in Enhancer EC at a ratio of 1:2 (μg of total RNA and/or DNA : μl of Enhancer), and formulated with TransMessenger at a ratio of 1:4 (μg of RNA and /or DNA: μl of TransMessenger) and then incubated with cells. For transfections of HepG2 cells, medium was changed after an overnight incubation with siRNA. For transfections of SCRH, cells were incubated with siRNA for 4 hr and then were overlaid with collagen. siRNA delivery into hepatocytes was more efficient before overlay of the top collagen layer. The effect of transfection was examined 48 hr later.
(§5) Cells were harvested 48 hr post transfection and lysed in 1% SDS, 1 mM EDTA plus COMPLETE™ protease inhibitor cocktail (Roche Diagnostics, Mannheim, Germany). The protein concentration of the clear cell lysate was determined with the BCA Protein Assay Reagent Kit (Pierce Biotech, Inc. Rockford, Ill.). […] of total protein per lane was resolved by electrophoresis on NuPAGE 4-12% Bis-Tris Gel (Invitrogen Life Technology, Carlsbad, Calif. USA) and were transferred onto polyvinylidone difluoride membranes. The following antibodies were used to probe the membranes: anti-Mrp2 (M2111-6, Alexis Biochemicals, San Diego, Calif. USA); anti-Mrp3 (kind gift from Dr. Yuichi Sugiyama); anti-Radixin (Chemicon International, Inc. Temecula, Calif. USA), anti-β-actin (MAB1501, Chemicon).

[6] = system: Mrp3; test: Immunoblot analysis of Mrp3 expression in siRNA-treated SCRH; type: cell-based, rat; conditions: immunoblot
Procedure: as §3, §4, §5

[7] = system: radixin; test: Immunoblot analysis of radixin expression in siRNA-treated SCRH; type: cell-based, rat
Procedure: as §3
as §4, with “For transfections of SCRH, cells were incubated with siRNA for 4 hr and then were overlaid with collagen. siRNA delivery into hepatocytes was more efficient before overlay of the top collagen layer. The effect of transfection was examined 48 hr later.” left out
Cells were harvested 48 hr post transfection and lysed in 1% SDS, 1 mM EDTA plus COMPLETE™ protease inhibitor cocktail (Roche Diagnostics, Mannheim, Germany). The protein concentration of the clear cell lysate was determined with the BCA Protein Assay Reagent Kit (Pierce Biotech, Inc. Rockford, Ill.). […]

[8] = 96-hr sandwich-cultured hepatocytes, 10-min cumulative uptake

CC1(C)SSC(C)(C)[C@@H](NC(=O)[C@@H](N)Cc2ccc(O)cc2)C(=O)NCC(=O)N[C@@H](Cc2ccccc2)C(=O)N[C@H]1C(=O)O [[D-pen^2,5]enkephalin]
cumulative uptake in standard buffer compared to Ca2+-free buffer [1]: not significantly different
cumulative uptake in standard buffer compared to Ca2+-free buffer [2]: significantly higher
clearance ([3]; in vivo biliary clearance, calculated by Equation 1 from data of Chen and Pollack): 18.5 mL/min/kg
clearance ([3]; in vivo intrinsic biliary clearance, calculated from Equation 2 (well-stirred model)): ~34.4 mL/min/kg

CN(Cc1cnc2nc(N)nc(N)c2n1)c1ccc(C(=O)N[C@@H](CCC(=O)O)C(=O)O)cc1 [methotrexate]
cumulative uptake in standard buffer compared to Ca2+-free buffer [1]: not significantly different
cumulative uptake in standard buffer compared to Ca2+-free buffer [2]: significantly higher
in vitro biliary clearance ([2]; 96-hr sandwich-cultured hepatocytes, 10-min cumulative uptake, Equation 4): 4.1 ± 1.0 mL/min/kg
percentage of the dose excreted in rat bile [4]: 50-60%
percentage of the dose excreted in rat bile ([4]; listed as Methotrexate): approximately 60%
in vivo biliary clearance [4]: 12.1 ml/min per kg body weight
clearance ([3]; in vivo intrinsic biliary clearance): ~17.3 mL/min/kg

O=C(O)c1ccccc1O [salicylate]
cumulative uptake in standard buffer compared to Ca2+-free buffer [1]: not significantly different
cumulative uptake in standard buffer compared to Ca2+-free buffer [2]: no effect
Biliary Excretion Index [2, 8]: approximately zero; also recorded: negligible
percentage of the dose excreted in rat bile [4]: negligible
in vivo biliary clearance [4]: ~0 ml/min per kg body weight

inulin
cumulative uptake (of initial added substrate) ([1]; short-term cultured hepatocytes, all incubation times, 1 μM): less than 0.01%
Biliary Excretion Index [2, 8]: approximately zero; also recorded: negligible
cumulative uptake (of initial added substrate) ([2]; long-term cultured hepatocytes, all incubation times, 1 μM): less than 0.01%
percentage of the dose excreted in rat bile [4]: negligible

siMrp2AB1: siRNA targeting rat Mrp2, GGCUAUAUCUGUGCAAUCCUA (SEQ ID NO: 3), nucleotides 1158-1178 of Mrp2 cDNA (listed as RNA, chemistry not given here)
maximum reduction in endogenous Mrp2 expression [5]: 79%
reduction in endogenous Mrp2 expression [5]: 50%
expression level of Mrp3 [6]: 89±11 % non-transfected control
radixin expression level [7]: 95±17 % non-transfected control

siMrp2AB2: siRNA targeting rat Mrp2, GGCUAGGAAGCAGUACACCAU (SEQ ID NO: 4) (listed as RNA, chemistry not given here)
reduction in endogenous Mrp2 expression [5]: 40±20%
expression level of Mrp3 [6]: 96±15 % non-transfected control
radixin expression level [7]: 100±8 % non-transfected control

siMrp2AB3: siRNA targeting rat Mrp2, GGCAGUAGGGUGGUGGUCCAU (SEQ ID NO: 5) (listed as RNA, chemistry not given here)
reduction in endogenous Mrp2 expression [5]: 26±18%
expression level of Mrp3 [6]: 86±11 % non-transfected control
radixin expression level [7]: 103±7 % non-transfected control
